# In US12268901B2, “Targeting cell tropism receptors to inhibit cytomegalovirus infection” (priority 2017, dated 2025):
# Entries after “also recorded” stand apart in the source; their conditions may differ.
# Tests used:
# Type in all cases: cell-based, Human cytomegalovirus (HCMV)
# [1] = system: TB40E-GFP virus binding to ARPE19 cells; assay: Peptide blocking assay, cell-binding virus assay (viral DNA by qPCR); conditions: different amounts of Peptide 1 preincubated with virus at 37° C. for 2 h, applied to ARPE19 cells at 4° C. for 2 h
# Protocol: The shPDGFRA, shOR14I1 and shDMBT1 transduced ARPE19 cells were chilled on ice for 20 min and then incubated with chilled TB40E-GFP at the indicated MOT on ice for 1 h. The cells were then washed ten times with cold PBS. Cellular DNA and cell-associated viral DNA were isolated using a DNeasy Blood & Tissue Kit (Qiagen). Viral DNA (UL83) and host DNA ((β-ACTIN) was quantified by real-time quantitative PCR as described (E et al., J Virol 88, 2279-2290 (2014)).
# DNA was isolated from infected ARPE cells using the Dneasy Blood and Tissue DNA mini kit (Qiagen) according to the manufacturer's instructions. Viral genomes were quantified with a primer pair (pp549s and pp812as) and a probe (pp770s) for UL83 (3), and the number of viral genomes normalized to the number of cellular copies of β-ACTIN with a previously described set of primers and probe (4). Unknown sample values were determined on the basis of a standard curve of known copy numbers of UL83 (AD169-BAC) and β-ACTIN (pAB1-bactin-PCRscript) (kind gifts from Donald Coen, Harvard Medical School). […] Real-time PCR was performed and analyzed by using a ViiA7 Real-Time PCR System (Applied Biosystems). […]
# Viral binding to ARPE19 cells was evaluated in the presence of Sf9-OR14I1 membrane particles. […] After washing with cold PBS, viral DNA levels were quantified by qPCR. […] After cold PBS washing, viral DNA levels were quantified by qPCR. […]
# [2] = system: HCMV infection of HEL fibroblasts; assay: Peptide blocking assay, infection of HEL fibroblasts (percent IE positive cells); conditions: peptide 1 100 μg/ml, MOI=2.0
# Protocol: FIG. 9. […] TB40E-GFP encoding the viral PC or AD169 lacking PC were preincubated with peptide 1 (100 μg/ml) and then infected on ARPE19 epithelial cells or HEL fibroblasts (MOI=2.0). Cells were fixed, permeabilized, stained for DNA, immunostained for anti-immediate early protein (IE) and imaged. […] Values indicate the mean percentage of infected cells of n=3 experiments±SD. **p<0.01; ***p<0.001.
# Live cell images: Phase and GFP signal images were captured on a Zeiss microscope (Zeiss AxioObserver Z1) at 10× magnification. Fixed cell images: cells were washed with PBS (Life Technologies) and fixed with 4% formalin in PBS (Sigma). DNA was stained with Hoechst 33342 dye (Life Technologies). The fixed cells were imaged using an Image Xpress Micro (IXM, Molecular Devices) at 4× magnification. Images were analyzed with MetaXpress imaging software (Molecular Devices) to determine the total cells per well and the percentage of infected cells (GFP positive) in each well. For IE immunostaining: fixed cells were permeabilized with 0.2% Triton X-100 (Sigma) in PBS. Blocking was performed with 1% BSA (Calbiochem, 2930) in PBS with 0.3M glycine (Sigma). Cells were then incubated in antibody targeting the major IE proteins (IE, EMD Millipore, MAB8131) diluted in 1% BSA in PBS. […]
# [3] = system: TB40E virus infection of epithelial cell lines; assay: Peptide blocking assay, infection of several epithelial cell lines (percent GFP positive cells); conditions: Peptide 1 100 μg/ml, MOI=2.0, 2 dpi
# Protocol: FIG. 10. […] Peptide 1 (100 μg/ml), or DMSO alone was preincubated with TB40E virus, followed by infection of the indicated epithelial cell lines (MOI=2.0). Cells were fixed and imaged for GFP and DNA at 2 dpi. […] Values indicate the mean percentage of infected cells of three experiments±SD. **p<0.01; ***p<0.001.
# The noted synthetic peptides (100 ug/ml each or as described) were mixed with TB40E-GFP virus (1.2×10^6 PFU) and incubated at 37° C. for 2 h by rocking. The resulting samples were then subjected to the virus binding or infection assay.
# [4] = system: TB40E-GFP infection of ARPE19 cells; assay: cAMP/PKA signaling pathway modulation, TB40E-GFP infection; conditions: H-89 20 μM, SQ22536 150 μM, FSK 20 μM, 2 h prior to infection, MOI=4.0, 48 hpi
# Protocol: (§1) FIGS. 7A-C. HCMV receptor engagement and cAMP/PKA signaling. ARPE19 or OR14I1 knock down cells were pretreated with phosphokinase A (PKA) inhibitor H-89 (20 μM), adenylate cyclase antagonist, SQ22536 (150 μM), or adenylate cyclase activator, forskolin (FSK; 20 μM) for 2 h prior to TB40E-GFP infection (MOI=4.0). Cells were fixed at 48 hpi and images taken.
# H-89, SQ22536 and Foskolin were purchased from Sigma-Aldrich Chemicals. Wild type ARPE19 or ARPE19 cells expressing the indicated shRNAs were treated with protein kinase A (PKA) inhibitor H-89 (20 μM), adenylate cyclase antagonist, SQ22536 (150 μM), or adenylate cyclase activator, forskolin (FSK; 20 μM) for 2 h prior to infection with TB40E-GFP (MOI=2.0). After 2 h, the medium was then replaced by the standard medium that also contained the noted small molecules. Images were taken at 2 dpi.
# as §1, with “HCMV” for “FIGS. 7A-C. HCMV”, “signaling was also evaluated.” for “signaling.”, “(MOI=4.0).” for “(MOI=4.0). Cells were fixed at 48 hpi and images taken.”
sequence,measurement,setting,value
"MDNLTKVTEFLLMEFSGIWELQVLHA (N-terminal fragment of OR14I1) [Peptide 1, synthetic peptide representing the N-terminus of OR14I1, position 1-26]",TB40E-GFP virus binding to ARPE19 cells (viral DNA by qPCR),[1],sufficient to prevent for TB40E-GFP virus binding ARPE19 cells
same,PC+ HCMV infection of fibroblasts,[2],modest effect
same,PC+ virus infection of multiple epithelial cell lines (percent GFP positive cells),[3],prevented PC+ virus infection; also recorded: inhibits HCMV infection of several epithelial cell lines
same,infectivity of TB40E-GFP in ARPE19 epithelial cells,[4],reduced infectivity significantly
